Results taken from US20120021434A1, “METHOD FOR TREATING B CELL REGULATED AUTOIMMUNE DISORDERS” (Synta Pharmaceuticals Corp., priority 2005, published 2012).

How the values were obtained:
Format in all cases: cell-based
c-Rel = biological target: T1, c-Rel (Homo sapiens, UniProt Q04864); experiment: Western blot of THP-1 nuclear extracts: c-Rel
T1 construct: a western blot assay of THP1 nuclear c-Rel, p50 and p65 proteins was carried out; endogenous in cells; host or cells: THP-1; Jurkat
T1 sequence (Q04864 1-619): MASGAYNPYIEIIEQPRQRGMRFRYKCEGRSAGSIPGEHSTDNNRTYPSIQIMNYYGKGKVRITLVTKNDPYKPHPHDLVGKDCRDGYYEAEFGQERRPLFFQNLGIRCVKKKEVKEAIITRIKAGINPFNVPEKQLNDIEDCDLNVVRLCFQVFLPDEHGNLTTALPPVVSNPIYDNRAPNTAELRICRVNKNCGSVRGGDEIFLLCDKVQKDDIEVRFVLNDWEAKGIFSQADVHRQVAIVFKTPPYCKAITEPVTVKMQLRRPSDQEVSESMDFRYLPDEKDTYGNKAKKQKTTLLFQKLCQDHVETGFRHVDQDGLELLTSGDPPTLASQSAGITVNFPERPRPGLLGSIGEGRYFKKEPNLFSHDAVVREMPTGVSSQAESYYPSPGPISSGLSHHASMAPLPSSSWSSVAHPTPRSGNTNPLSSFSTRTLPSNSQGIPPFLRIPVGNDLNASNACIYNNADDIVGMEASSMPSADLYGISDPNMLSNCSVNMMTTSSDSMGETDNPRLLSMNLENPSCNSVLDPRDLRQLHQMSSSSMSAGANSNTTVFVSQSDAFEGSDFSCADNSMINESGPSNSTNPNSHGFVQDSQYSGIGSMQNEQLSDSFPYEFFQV
Method: (§1) The THP-1 cell, Jurkat cell and RAW264.7 cell line were obtained from American Type Culture Collection (Manassas, Va.). The THP-1 Jurkat cells were cultured in RPMI 1640 (ATCC, Manassas, Va.), supplemented with 10% FCS (ATCC, Manassas, Va.), and 1% penicillin/Streptomycin (Gibco-BRL, New York, N.Y.). The RAW264.7 cells were cultured in DMEM (ATCC, Manassas, Va.) supplemented with 10% FCS (ATCC, Manassas, Va.), and 1% penicillin/Streptomycin (Gibco-BRL, New York, N.Y.). The cells were stimulated with human or murine recombinant IFNγ (100 ng/ml) for 10 h followed by LPS (1 μg/ml) or SAC (0.025%) CpG ([…]) in the presence or absence of Compound 50 at different concentrations for an additional incubation.
THP-1 cells were suspended in 20 volumes of buffer A containing 10 mM KCl, 10 mM HEPES (pH 7.9), 1 mM MgCl2, 1 mM dithiothreitol (DTT), 0.1% Nonidet p40 (NP-40), and 0.5 mM phenylmethylsulfonyl fluoride (PMSF) and homogenized and centrifuged at 10,000 rpm at 4C afor 5 min. Nuclear pellets were then suspended in buffer C containing 400 mM NaCl, 20 mM HEPES 9, pH 7.9), 15 mM MgCl2, 0.2 mM EDTA, 1 mM DTT, 25% glycerol, 1 mM PMSF, and 10 ug of leupeptin, 20 ug of pepstatin, and 10 ug/ml antipain, incubated for 30 min at 4C, and centrifuged at 14,000 rpm for 20 min. The supernatants were dialyzed against buffer D containing 100 mM NaCl, 20 mM HEPES (pH 7.9), 20% glycerol, 1 mM PMSF, and 1 mM DTT.
The 10% SDS Polyacrylamide gels (Inveitrogen) were transferred to Pure Nitrocellulose membrane (BioRed, Hercules, Calif.). The membranes were blocked with 5% milk in TBST buffer and incubated with anti-c-Rel, anti-p65, anti-p50, anti-ICSBP or anti-PU-1 antibody (all the antibodies were purchased from Santa Cruz) at a dilution of 1:500 for 1 h at room temperature or overnight at 4C. […]
(§2) Of the transcription factors that have been analyzed, two factors, ICSBP and c-Rel, seem to be affected by Compound 4/Compound 50 treatment. […]

p65 = experiment: Western blot of THP-1 nuclear extracts: p65; conditions: IFN-γ plus LPS or IFN-γ plus SAC
Method: as §1
THP-1 cells were suspended in 20 volumes of buffer A containing 10 mM KCl, 10 mM HEPES (pH 7.9), 1 mM MgCl2, 1 mM dithiothreitol (DTT), 0.1% Nonidet p40 (NP-40), and 0.5 mM phenylmethylsulfonyl fluoride (PMSF) and homogenized and centrifuged at 10,000 rpm at 4C afor 5 min. […]
as §2

ICSBP = ICSBP expression (Western blot)
Method: The 10% SDS Polyacrylamide gels (Inveitrogen) were transferred to Pure Nitrocellulose membrane (BioRed, Hercules, Calif.). The membranes were blocked with 5% milk in TBST buffer and incubated with anti-c-Rel, anti-p65, anti-p50, anti-ICSBP or anti-PU-1 antibody (all the antibodies were purchased from Santa Cruz) at a dilution of 1:500 for 1 h at room temperature or overnight at 4C. The membranes were washed and incubated with Horseradish Peroxidase-conjugated anti-rabbit IgG or anti-mouse IgG (Amersham, England) at a dilution of 1:2000 at room temperature for 1 h.
Of the transcription factors that have been analyzed, two factors, ICSBP and c-Rel, seem to be affected by Compound 4/Compound 50 treatment. ICSBP binds indirectly to the Ets-2 site. The primary NF-κB trans-activator for IL-12 is the c-Rel/p50 heterodimer. Other dimers (p65/p50 and p50/p50) either lack activity or have inhibitory functions. Thus, c-Rel plays a role in IL-12 transcription as a result of both activation through NF-κB and its interaction with ICSBP. […] The membranes were blocked with 5% milk in TBST buffer and then incubated with anti-c-Rel, anti-p65, anti-p50, anti-ICSBP or anti-PU-1 antibody (all the antibodies were purchased from Santa Cruz) at a dilution of 1:500 for 1 h at room temperature or overnight at 4° C. The membranes were washed and incubated with Horseradish Peroxidase-conjugated anti-rabbit IgG or anti-mouse IgG (Amersham, England) at a dilution of 1:2000 at room temperature for 1 h.
ICSBP, whose expression was reduced by Compound 50, was over-expressed using co-transfection with the IL-12 promoter-Luc report system. The over-expression construct of ICSBP was generated by PCR from cDNA of human PBMC using primers as follow: ICSBP-exp-F: 5′-[…]-3′ (SEQ ID NO:1) and ICSBP-exp-R: 5′-[…]-3′ (SEQ ID NO:2), the resulting PCR products was ligated to pCI vector (Promega).

[1] = of the transcription factors analyzed

Compound: Cc1cccc(/C=N/Nc2cc(N3CCOCC3)nc(OCCc3ccccn3)n2)c1 [Compound 50, N-(3-Methyl-benzylidene)-N′-[6-morpholin-4-yl-2-(2-pyridin-2-yl-ethoxy)-pyrimidin-4-yl]-hydrazine]
- level of nuclear c-Rel (c-Rel; THP-1 nuclear extracts, IFN-γ plus LPS or IFN-γ plus SAC, post-treatment level equal to or below non-stimulated level): significantly reduced
- transcription factor c-Rel affected by treatment (c-Rel; [1]): affected
- nuclear p65 protein (p65): increased
- ICSBP expression (ICSBP): reduced
- transcription factor ICSBP affected by treatment (ICSBP; [1]): affected
